Experimental data: patent publication US20030109418A1, “Methods for identifying compounds for inhibition of neoplastic lesions, and pharmaceutical compositions containing such compounds” (priority 1999, published 2003)
Where a name gives a salt, the structure may show the parent alone.

Assays:
[1] = 28-day study in rats; format: in vivo, rat
[2] = test system: SW-620; experiment: Growth inhibition, neutral red assay, SW-620; format: cell-based, human; settings: free base, five days
Description: (§1) Compound I's activity is not confined to activity against colon cancer cell lines or animal models of colon cancer. It has a broad range of anti-neoplastic effects in various neoplastic cell lines. Various types of human cancer cell lines were propagated under sterile conditions in RPMI 1640 medium with 10% fetal bovine serum, 2 mM L-glutamine and sodium bicarbonate. To determine growth inhibitory effects of Compound I, cells were seeded in 96-well plates at a density of 1000 cells per well. Twenty-four hours after plating, the cells were dosed with various concentrations of the free base of Compound I solubilized in DMSO (final concentration 0.1%). The effect of the drug on tumor cell growth was determined using the neutral red cytotoxicity assay following five days of continuous treatment. Neutral red is a dye that is selectively taken up by viable cells by an ATP-dependent transport mechanism.

[3] = test system: NCI-H23; experiment: Growth inhibition, neutral red assay, NCI-H23; format: cell-based, human; settings: free base, five days
Description: as §1

[4] = test system: NCI-H322M; experiment: Growth inhibition, neutral red assay, NCI-H322M; format: cell-based, human; settings: free base, five days
Description: as §1

[5] = test system: NCI-H82; experiment: Growth inhibition, neutral red assay, NCI-H82; format: cell-based, human; settings: free base, five days
Description: as §1

[6] = test system: UISO-BCA-1; experiment: Growth inhibition, neutral red assay, UISO-BCA-1; format: cell-based, human; settings: free base, five days
Description: as §1

[7] = test system: Molt-4; experiment: Growth inhibition, neutral red assay, Molt-4; format: cell-based; settings: Homo sapiens, HCl salt
Description: as §1

[8] = test system: OVCAR; experiment: Growth inhibition, neutral red assay, OVCAR; format: cell-based; settings: Homo sapiens; HCl salt
Description: as §1

[9] = rat, in vivo
[10] = test system: KNRK, Kidney (ras transformed); experiment: Growth inhibition, SRB assay, KNRK; format: cell-based
[11] = test system: PKG activity in SW480 colon cancer cells; experiment: PKG assay of lysates of drug-treated SW480 cells; format: cell-based, human; settings: SW480 treated 48 hrs; exisulind 200, 400, 600 μM; E4021 0.1, 1, 10 μM; with and without added cGMP
From the text: That sequence is known and described in the literature below. […] One way to bind the PDE5 sequences to a solid phase is to express those sequences as a fusion protein of the PDE5 sequence and one member of an amino acid binding pair, and chemically link the other member of that amino acid binding pair to a solid phase (e.g., beads). One binding pair that can be used is glutathione S-transferase (“GST”) and glutathione (“GSH”), with the GST being expressed as a fusion protein with the PDE5 sequence described above, and the GSH bound covalently to the solid phase. In this fashion, the PDE5 sequence/GST fusion protein can be bound to a solid phase simply by passing a solution containing the fusion protein over the solid phase, as described below.
To assay a liquid sample believed to contain PKG using the PDE5-bound solid phase described above, the sample and the solid phase are mixed with phosphorylation buffer containing ^32P-γ-ATP. The solution is incubated for 30 minutes at 30° C. to allow for phosphorylation of the PDE5 sequence by PKG to occur, if PKG is present. […]
For each control or drug cell lysate sample to be evaluated, the reaction is started by adding phosphorylation buffer containing 10 μCi ^32P-γ-ATP solution (200 μM ATP, 4.5 mM MgCl; 5 mM KH2PO4; 5 mM K2HPO4;) to each mixture. […]

[12] = test system: PKG activity in HCT116 colon cancer cells; experiment: PKG assay of lysates of drug-treated HCT116 cells; format: cell-based
From the text: To test the effect of cGMP-specific PDE inhibition on neoplasia containing the β-catenin mutation, HCT116 colon cancer cells were employed. HCT116 is known to contain the β-catenin mutation, but is known not to contain the APC mutation.
The same procedure is used to grow the HCT116 cells as is used in the SW480 procedure described above. In this experiment, only exisulind and controls were used.

[13] = target: T1, cGMP binding sites of the GST-cGB-PDE5 protein (Homo sapiens, UniProt O76074); experiment: cGMP binding assay with GST-cGB-PDE5 fusion protein; settings: 3H-cGMP 2 μM
T1 construct: made in house; host or cells: E. coli BL21 (DE3)
T1 sequence (O76074 46-539 limits assumed): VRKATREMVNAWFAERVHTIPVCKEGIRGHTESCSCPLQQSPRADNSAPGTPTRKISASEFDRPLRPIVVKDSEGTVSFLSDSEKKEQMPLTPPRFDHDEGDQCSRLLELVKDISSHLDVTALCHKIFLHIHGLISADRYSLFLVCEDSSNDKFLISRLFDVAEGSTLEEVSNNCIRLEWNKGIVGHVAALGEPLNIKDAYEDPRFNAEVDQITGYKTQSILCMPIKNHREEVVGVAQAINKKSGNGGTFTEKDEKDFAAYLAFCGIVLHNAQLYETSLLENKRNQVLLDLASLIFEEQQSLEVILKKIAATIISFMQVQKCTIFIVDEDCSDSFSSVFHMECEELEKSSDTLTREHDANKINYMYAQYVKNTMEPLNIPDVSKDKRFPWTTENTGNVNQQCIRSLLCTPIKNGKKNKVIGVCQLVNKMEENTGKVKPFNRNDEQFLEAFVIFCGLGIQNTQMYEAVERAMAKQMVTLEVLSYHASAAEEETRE

CC1=C(CC(=O)NCc2ccccc2)c2cc(F)ccc2/C1=C\c1ccncc1 [Compound I, (Z)-5-fluoro-2-methyl-(4-pyridylidene)-3-(N-benzyl)indenylacetamide hydrochloride]
organ weight data, 28-day study ([1]; rats, 2000 mg/kg/day): statistically significant increase in liver weights | clinical observations, 28-day study ([1]; rats, 50, 500 and 2000 mg/kg/day): no abnormal clinical observations | GI50 ([2]; Homo sapiens, SW-620, 120 h): 1.7 µM | GI90 μM, SW-620 [2]: 2.5 µM | GI50 ([3]; Homo sapiens, NCI-H23, 120 h): 1.7 µM | GI90 μM, NCI-H23 [3]: 2.5 µM | GI50 ([4]; Homo sapiens, NCI-H322M, 120 h): 2.1 µM | GI90 μM, NCI-H322M [4]: 13.2 µM | GI50 ([5]; Homo sapiens, NCI-H82, 120 h): 1.7 µM | GI90 μM, NCI-H82 [5]: 5.8 µM | GI50 ([6]; Homo sapiens, 120 h): 1.5 µM | GI90 μM, UISO-BCA-1 [6]: 4.7 µM | GI50 [7]: 1.6 µM | GI50 [8]: 1.2 µM | signs of toxicity, single oral doses [9]: no observable signs of toxicity | findings after single intraperitoneal dose ([9]; ip, 1000 mg/kg): reduced body weight gain, with mesenteric adhesions seen in some animals | body weight gain, single oral dose ([9]; po, 4000 mg/kg): body weight gains were slightly reduced

CC1=C(CC(=O)O)c2cc(F)ccc2/C1=C\c1ccc(S(C)(=O)=O)cc1 [Exisulind, 5-fluoro-2-methyl-1-(p-methylsulfonylbenzylidene)-3-indenylacetic acid]
IC50 [10]: 240 µM | PKG activity relative to control [11]: causes PKG activity to increase in a dose-dependent manner | PKG activation relative to controls [12]: yielded PKG that was phosphorylated to a greater extent than the corresponding controls | competition with cGMP in binding of GST-cGB-PDE5 [13]: do not bind to the cGMP binding sites of PDE5
